Each block holds one compound with its values, some of them ahead of it.
How the values were obtained:
recombinant DNMT3B = biological target: T1, recombinant DNMT3B (Mus musculus, UniProt O88509); test: Effect of Ca2+ and DTT on the C to 5-mC methylation reaction of recombinant DNMT3B (hydrolysis-TLC assay); type: biochemical; conditions: 40 nM recombinant DNMT3B, unmethylated pMR1-8, 160 μM SAM, 1 mM CaCl2 or 5 mM DTT, 37°C, 4 h
T1 construct: purchased BPS Bioscience; host or cells: recombinant baculovirus-infected Sf9 insect cells
Protocol: (§1) FIGS. 3A-B show the effects of a reducing condition and SAM on the DNA demethylation and methylation activities of DNMT3B. […] After incubation at 37° C. for 4 h, the DNA products were analyzed by the hydrolysis-TLC assay. The results are quantitatively presented in the histogram. […] After incubation at 37° C. for 4 h, the extents of C methylation of the DNAs from the different reactions were determined by hydrolysis-TLC assay and quantitatively compared in the histogram. Error bars indicate S.D.
Methylation in vitro of unmodified pMR1-8 plasmid DNA by the DNMTs were carried out and analyzed by the hydrolysis-TLC assay. When needed, 1 mM CaCl2 or 5 mM DTT was also included in the reaction mixture.

[1] = system: DNA demethylation activity of porcine sperm nuclear extract; test: In vitro DNA demethylation by porcine sperm nuclear extract (restriction digestion-PCR assay); type: biochemical; conditions: for effect on the in vitro DNA demethylation activity of the sperm nuclear extract: 10 mM CaCl2, increasing concentrations of inhibitor (APE-i to 1 mM, 3-AB to 50 mM, THU to 1 mM)
Protocol: The nuclear extracts were prepared from the porcine sperms and 293T cells, respectively, by a modified method. Briefly, the porcine semen was washed three times by PBS buffer and the sperm pellet isolated with FICOLL®. The pellet was resuspended in a hypotonic buffer (10 mM Tris-HCl, pH7.4, 10 mM NaCl, 10 mM EDTA and EDTA-free protease inhibitors) on ice for 15 minutes. The resuspended sperms were passed through a G21 needle 10 times and then centrifuged at 13,200 rpm at 4° C. for 10 min. The supernatant was removed and the pellet of the nuclei was resuspended in a resuspension buffer (10 mM Tris-HCl, pH7.4, 10 mM NaCl, 1.5 mM, MgCl2 and EDTA-free protease inhibitors), and an equal volume of 1M NaCl was added for 30 min incubation on ice.

recombinant mouse DNMT3B = biological target: T2, recombinant mouse DNMT3B (Mus musculus, UniProt O88509); test: Effect of Ca2+, DTT, SAM and H2O2 on the DNA demethylation activity of recombinant DNMT3B (hydrolysis-TLC assay); type: biochemical
T2 construct: purchased BPS Bioscience; host or cells: recombinant baculovirus-infected Sf9 insect cells
Protocol: M, mock control without incubation.
as §1
Rx, reactions. […] M, mock control without incubation.

[2] = system: 5-mC-containing double-stranded DNA substrate; test: 5-mC to C conversion by 293T nuclear extracts with exogenously expressed mouse DNMTs (hydrolysis-TLC assay); type: biochemical; conditions: 293T nuclear extract with exogenously expressed mouse enzyme, buffer B, 10 mM Ca2+
[3] = system: 5-mC-containing DNA substrate; test: 5-mC to C conversion by recombinant DNMTs (hydrolysis-TLC assay); conditions: 40 nM recombinant DNMT3B, 1 mM CaCl2, 37°C, 2 h (reaction 1)

- effect on the 5-C methylation reaction of DNMTs (in words) (recombinant DNMT3B): nor was it affected
Compound: O[C@H](CS)[C@H](O)CS (racemic) [DTT, dithiothreitol]

Compound: NC(=O)c1cccc(N)c1 [3-aminobenzamide]
- effect on the in vitro DNA demethylation activity of the sperm nuclear extract [1]: little effect

Compound: O=C(O)c1cc2cccc([N+](=O)[O-])c2[nH]1 [CRT0044876]
- effect on the in vitro DNA demethylation activity of the sperm nuclear extract [1]: little effect

- effect on the 5-C methylation reaction of DNMTs (in words) (recombinant DNMT3B): did not require
Compound: [Ca+2].[Cl-].[Cl-] [Ca^2+, CaCl2]
- reduction of the extent of DNA methylation ([1]; 1-10 mM Ca2+, fully methylated pMR1-8 plasmid, 37°C, 2 h): 20-50%

Compound: OO [H2O2]
- effect on the enzyme activity of DNMT3B after SAM (in words) (recombinant mouse DNMT3B; 1 mM H2O2 added after reaction 2, another 2 h (reaction 3)): led to the switch of the enzyme activity of DNMT3B from methylation to demethylation again

- C converted back to 5-mC (recombinant mouse DNMT3B; 160 μM SAM added after reaction 1, continued 1 h incubation (reaction 2)): more than 60%
Compound: C[S+](CC[C@H](N)C(=O)O)C[C@H]1O[C@@H](n2cnc3c(N)ncnc32)[C@H](O)[C@@H]1O (some centres unmarked) [SAM, S-adenosylmethionine]

Compound: O=C1NC(O)CCN1[C@@H]1O[C@H](CO)[C@@H](O)[C@H]1O (some centres unmarked) [tetrahydrouridine]
- effect on the in vitro DNA demethylation activity of the sperm nuclear extract [1]: little effect

Compound: DNMT1: mouse DNA methyltransferase 1 exogenously expressed in 293T nuclear extract (SEQ ID NO: 5)
- 5-mC residues on the DNA substrate from which the 5-methyl group was removed [2]: approximately 30%

Compound: DNMT3B: mouse DNA methyltransferase 3B, expressed in 293T nuclear extract or recombinant from BPS Bioscience (SEQ ID NO: 9)
- 5-mC residues on the DNA substrate from which the 5-methyl group was removed [2]: approximately 30%
- 5-mC on the DNA substrate demethylated at the end of the first reaction [3]: approximately 60%

From patent US9695463B2, “DNA 5-methyl cytosine demethylation activity of vertebrate DNA methyltransferases” (Academia Sinica, priority 2012, dated 2017)
